Experimental data from patent US7888063B2, “Unnatural reactive amino acid genetic code additions” (The Scripps Research Institute, priority 2003, dated 2011).

Columns and labels:
[1] = system: position 33 of hSOD; experiment: LC-MS/MS of tryptic peptide VY*GSIK of mutant hSOD: identity of the amino acid incorporated; design: species or system Saccharomyces cerevisiae; settings: from the signal-to-noise ratio of the peptide spectra; hSOD position 33
Description: The identity of the amino acid incorporated was determined by subjecting a tryptic digest of the mutant protein to liquid chromatography and tandem mass spectrometry. For example, for mass spectrometry protein bands were visualized by colloidal Coomassie stain. Gel bands corresponding to wild-type and mutant SOD were excised from polyacrylamide gels, sliced into 1.5-mm cubes, reduced and alkylated, then subjected to trypsin hydrolysis essentially as described. See, e.g., A. Shevchenko, et al., (1996), Analytical Chemistry 68, 850-858. Tryptic peptides containing the unnatural amino acid were analyzed by nanoflow reversed-phase HPLC/μESI/MS with an LCQ ion trap mass spectrometer. Liquid chromatography tandem mass spectrometry (LC-MS/MS) analysis was performed on a Finnigan LCQ Deca ion trap mass spectrometer (Thermo Finnigan) fitted with a Nanospray HPLC (Agilent 1100 series). See, e.g., FIG. 10, Panels A-H. […]
For example, the wild-type and mutant hSOD were purified using nickel affinity column and protein bands were visualized by colloidal Coomassie stain. […] Tryptic peptides containing the unnatural amino acid were analyzed by nanoflow reversed-phase HPLC/μESI/MS with an LCQ ion trap mass spectrometer. […]

[2] = system: GAL4 responsive HIS3, URA3 and lacZ reporters in MaV203; experiment: Growth of selection strain MaV203:pGADGAL4(2TAG) harboring synthetase plasmids on selective media (-ura, -his + 3-AT, 5-FOA, X-GAL); assay type: cell-based, Saccharomyces cerevisiae; settings: MaV203 containing pGADGAL4(T44TAG, R110TAG)
Description: S. cerevisiae strain MaV203, (Invitrogen) is MATα; leu2-3,112; trp1 109;his3 Δ200;ade2-101;cyh2^R;cyh1^R;GAL4 Δ; gal80 Δ; GAL1::lacZ; HIS3UASGAL1::HIS3@LYS2; SPAL10UASGAL1::URA3. Yeast media were purchased from Clontech, 5-FOA and X-GAL were from Invitrogen and 3-AT was from BIO 101. YPER (Yeast Protein Extraction Reagent) and ONPG were purchased from Pierce Chemicals. Plasmid transformations were performed by the PEG/Lithium actetate method (see, e.g., D. Burke, et al., (2000) Methods in Yeast Genetics. Cold Spring Harbor Laboratory Press, Cold Spring Harbor, N.Y.) and transformants selected on the appropriate synthetic complete dropout media. To test the phenotypes conferred by various plasmid combinations on MaV203 yeast colonies from synthetic complete dropout plates of each transformation were resuspended in 15 μL of sterile water and streaked on the selective media of interest. […] The OD660 of 100 μL of cells, and several dilutions of cells were recorded in parallel in a 96 well microtiter plate. […] Upon color development, cells were pelleted by centrifugation, the supernatant transferred to a clean 96 well microtiter plate (Nunclon, cat.# 167008), and the A420 recorded. […] ONPG hydrolysis was calculated using the equation: beta-galactosidase units=[…]. […] Spectrophotometric readings were performed on a SPECTRAmax190 plate reader. […]

Molecule: CC(=O)c1ccc(C[C@H](N)C(=O)O)cc1 [p-acetyl-L-phenylalanine]
- incorporation purity [1]: ≥ 99.8%

B1: EcTyrRS: Escherichia coli tyrosyl-tRNA synthetase, expressed with tRNACUA in yeast (protein, UniProt P0AGJ9 2-424, looked up)
Tyrosine--tRNA ligase: ASSNLIKQLQERGLVAQVTDEEALAERLAQGPIALYCGFDPTADSLHLGHLVPLLCLKRFQQAGHKPVALVGGATGLIGDPSFKAAERKLNTEETVQEWVDKIRKQVAPFLDFDCGENSAIAANNYDWFGNMNVLTFLRDIGKHFSVNQMINKEAVKQRLNREDQGISFTEFSYNLLQGYDFACLNKQYGVVLQIGGSDQWGNITSGIDLTRRLHQNQVFGLTVPLITKADGTKFGKTEGGAVWLDPKKTSPYKFYQFWINTADADVYRFLKFFTFMSIEEINALEEEDKNSGKAPRAQYVLAEQVTRLVHGEEGLQAAKRITECLFSGSLSALSEADFEQLAQDGVPMVEMEKGADLMQALVDSELQPSRGQARKTIASNAITINGEKQSDPEYFFKEEDRLFGRFTLLRRGKKNYCLICWK
- growth phenotype on 3-AT plates [2]: grew robustly on plates with 3-AT concentrations up to 75 mM
